Data taken from patent publication US9132138B2, “Method for the treatment of multiple sclerosis” (CASI Pharmaceuticals, Inc., priority 2012, dated 2015).

Key:
[1] = system: activated B cells; assay: B cell activation markers CD25 and CD69; type: cell-based, C57/BL6 mice
Procedure: Cells were pre-incubated with various concentrations of 2ME2 (Entremed) or vehicle (DMSO) for 30 minutes at 37° C.
Purified CD4^+ T cells were stimulated with plate-bound anti-CD3 (clone 2C11, BD, 10 ng/ml) plus anti-CD28 (clone 37.51, BD, 100 ng/ml). Purified B220+ B cells were stimulated with anti-IgM (Jackson, 5 μg/ml), anti-CD40 (clone 3/20, BD, 5 μg/ml) or LPS (Sigma, 20 μg/ml) for the times indicated in FIG. 3. CD25 and CD69 expression was determined by flow cytometry (FACSCanto II, BD) and analyzed using FloJo software (Treestar Inc). Proliferation was assessed by 3H-thymidine incorporation. Viability and upregulation of cell surface markers on activated T cells were assessed by flow cytometry using Annexin V and propridium iodide. Human Peripheral blood mononuclear cells (PBMC) were isolated using Mono-Poly Resolving Medium (MP Biomedical) according to the manufacturer's protocols and activated with anti-CD3 (clone UCHT1) and anti-CD28 (clone CD28.2).

[2] = biological target: T1, GPER1 (Mus musculus, UniProt Q8BMP4); assay: GPER1 dependence: CD25/CD69 on CD4+ T cells with G15 or G1; type: cell-based, C57/BL6 mice; settings: at 6 hours
T1 construct: Purified C57/BL6 CD4^+ T cells were preincubated with the GPER1 antagonist G15; endogenous in cells; host or cells: purified primary CD4+ T cells from C57/BL6 mice
T1 sequence (Q8BMP4 1-375): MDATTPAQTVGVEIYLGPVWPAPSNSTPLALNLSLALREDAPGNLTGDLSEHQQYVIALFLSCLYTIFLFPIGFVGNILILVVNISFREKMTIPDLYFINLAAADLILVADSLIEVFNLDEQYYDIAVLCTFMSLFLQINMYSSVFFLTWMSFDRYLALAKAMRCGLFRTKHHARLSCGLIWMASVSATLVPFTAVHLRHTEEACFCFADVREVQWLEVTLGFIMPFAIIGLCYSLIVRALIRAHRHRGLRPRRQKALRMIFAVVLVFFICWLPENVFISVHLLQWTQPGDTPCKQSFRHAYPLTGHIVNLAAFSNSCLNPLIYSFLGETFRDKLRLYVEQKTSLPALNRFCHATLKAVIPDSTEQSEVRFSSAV
Procedure: FIGS. 6A and 6B show purified CD4^+ T cells that were pretreated with 2-50 μM 2ME2 and/or the GPER1 antagonist G15, and subsequently stimulated with anti-CD3/28 for 6 hours. Activation of CD4^+ T cells was assessed by CD25 and CD69 upregulation, measured by flow cytometry. US, unstimulated. Data is shown as mean±SD for triplicate determinations, and is representative of two separate experiments.
Purified C57/BL6 CD4^+ T cells were preincubated with the GPER1 antagonist G15 (100 nM, Tocris) and 2ME2 (0-50 μM), or the GPER1 agonist G1 (1-100 nM, Tocris) for 30 minutes, and activated with plate bound anti-CD3 plus soluble anti-CD28. 6 hours later, cells were harvested, stained with anti-CD4 and anti-CD25. CD25 expression was monitored on a HTS FACSCanto II (BD) and analyzed with FloJo (Treestar Inc).

[3] = system: T cells; assay: Immunoblotting of signaling proteins in whole cell lysates of stimulated T cells; type: cell-based, C57/BL6 mice
Procedure: FIG. 4A, purified T cells pre-treated with 2ME2 (50 μM) were stimulated with PMA/iono for the indicated times. Whole cell lysates were subjected to immunoblotting to detect the indicated proteins. FIG. 4B, nuclear lysates were analyzed by EMSA to detect DNA binding to NF-κB or AP-1. FP, free probe. FIG. 4C, purified T cells or B cells were pre-treated with vehicle (−) or 50 μM 2ME2 (+) and were stimulated with PMA/iono for 30 or 60 minutes (left), or with anti-CD3/28 or anti-IgM/CD40 for 24 hours (right). Nuclear fractions of lymphocytes were analyzed by immunoblotting to detect nuclear translocation of NFATc1. Lamin A, nuclear protein loading control. NS; non-specific band. For FIGS. 4A-4C, data are representative of at least two independent experiments. FIG. 4D, stably transfected NFAT and NF-κB Jurkat luciferase reporter cell lines were preincubated with 2ME2 for 30 minutes, and stimulated via crosslinking of anti-CD3/28 antibodies with goat anti-mouse antibodies (GaM). 5 hours later, secreted luciferase activity indicates relative transcriptional activity. Data is reported as normalized luciferase activity and is representative of 3 independent experiments.
Whole cell lysates of stimulated T cells were immunoblotted with Ab recognizing phospho-protein kinase B (AKT) (Ser473), phospho-JNK (Thr183/Tyr185, p46 and p54 Clone G9, antibody “2”), phospho-ERK (Thr202/Tyr204) or phospho-IκBα (Ser32) (NEB); phospho-JNK (Thr183/Tyr185, p54 pSAPK/JNK, clone G7, antibody “1”) or IκBα(C21) (Santa Cruz); β-tubulin (Millipore) or actin (Sigma). Infrared dye-labeled secondary Ab (anti-rabbit Alexa fluor 680, Invitrogen, and anti-mouse IR800, LICOR) were visualized with the Odyssey® scanner (LICOR).

[4] = biological target: T2, ERα (Homo sapiens, UniProt P03372); settings: cited from earlier work
T2 sequence (P03372 1-595): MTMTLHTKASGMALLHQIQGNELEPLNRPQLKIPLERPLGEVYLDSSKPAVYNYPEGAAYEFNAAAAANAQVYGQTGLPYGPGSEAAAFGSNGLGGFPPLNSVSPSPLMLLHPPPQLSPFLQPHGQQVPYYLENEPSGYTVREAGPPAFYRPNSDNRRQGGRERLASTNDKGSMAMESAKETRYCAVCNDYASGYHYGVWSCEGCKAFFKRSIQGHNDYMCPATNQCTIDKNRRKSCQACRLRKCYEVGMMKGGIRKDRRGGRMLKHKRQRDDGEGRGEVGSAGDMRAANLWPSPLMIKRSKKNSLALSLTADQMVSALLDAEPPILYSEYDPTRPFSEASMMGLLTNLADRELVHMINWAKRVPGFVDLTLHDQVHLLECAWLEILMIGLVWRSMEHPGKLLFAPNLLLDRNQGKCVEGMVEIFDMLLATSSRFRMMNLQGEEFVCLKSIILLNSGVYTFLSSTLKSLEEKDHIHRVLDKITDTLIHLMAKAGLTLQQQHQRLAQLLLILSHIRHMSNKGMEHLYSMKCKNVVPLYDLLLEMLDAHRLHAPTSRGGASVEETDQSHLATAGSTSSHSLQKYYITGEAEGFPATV

[5] = oral 2ME2, mice and humans; cited from earlier work
[6] = T cells activated with anti-CD3/28

Q: Which results are given for COc1cc2c(cc1O)CC[C@@H]1[C@@H]2CC[C@]2(C)[C@@H](O)CC[C@@H]12 [2ME2, 2-Methoxyestradiol]?
A: up-regulation of CD25 in activated B cells [1]: prevented; up-regulation of CD69 in activated B cells [1]: prevented; cell viability [2]: Neither 2ME2, G1 nor G15 affected cell viability; AKT phosphorylation ([3]; 2ME2 50 μM, PMA/iono): did not inhibit; ERK phosphorylation ([3]; 2ME2 50 μM, PMA/iono): did not inhibit; IκBα phosphorylation and degradation ([3]; 2ME2 50 μM, PMA/iono): normal; phosphorylation of JNK 1 and 2 ([3]; 2ME2 50 μM, present even in the absence of stimulation): modest hyper-phosphorylation; ERK phosphorylation [3, 6]: did not inhibit; JNK phosphorylation [3, 6]: did not inhibit; NF-κB p65 phosphorylation [3, 6]: did not inhibit; lower affinity than estradiol for ERα [4]: 500 fold; bioavailability [5]: 1.5%
